SMILES strings stand for the structures. pEC50: −log10 of the molar value. Counter-ions that a name gives are not always drawn.

In one assay the test system is IL-23 (p19/p40). The experiment in a line: IL23-p19 ELISA, dendritic cells (DC differentiated from human PBMC, IFNγ primed), LPS stimulated. The assay is classed as cell-based. As to conditions: Dendritic cell, human PBMC-derived dendritic cells, 1 h compound pre-incubation, LPS 1 μg/ml 18 hours, 10 pt. Here is the method: Compound Screening Using DC Cells
I. Differentiation of PBMC's to DC Cells:
After 2 hours, the media including floating cells was aspirated out carefully and 12 ml of fresh RPMI media (10% FBS) containing GMCSF (100 ng/ml) and IL4 (20 ng/ml) was added, and the flask was kept in a 37° C. incubator for 7 days.
After 3 days, fresh GMCSF (100 ng/ml) and IL4 (20 ng/ml) were added to the flask and the incubation continued. After 7 days, the fully differentiated cells were harvested by spinning down (1200 rpm/5 min) and aspirating the media. The cells were suspended in fresh RPMI media (10% FBS) containing 50 ng/ml IFNγ (1000 U/ml) and then plated (50K/well in 100 μl) onto a white clear bottom 96 well plate and left in a 37° C. incubator for 24 hours.
II. Addition of Compounds:
After 24 hours incubation, 100 μl of RPMI media was added containing 2× concentrated test compound per well to the above cell-culture media (final concentration becomes 1×) and the plates were pre-incubated for 1 hour at 37° C. before stimulating with LPS.
The mixture was shaken and incubated the plates at 37° C. for an additional 18 hours.
155 μl of the supernatant was harvested from each well carefully (without the tip touching the bottom of the well) and to the remaining 50 μl/well of the cell culture plate was added 50 μl of Cell Titer Glo reagent. The mixture was incubated for 1-2 minutes on a shaker and the plate was read for luminescence intensity to determine the compound cytotoxicity. The cell culture supernatant collected above was used to carry out IL23 ELISA (65 μl—Supernatant) and IL10 ELISA (90 μl—Supernatant) as described below.
Human IL-23 (p19/p40) ELISA Protocol (e-Biosciences)
To 10.5 ml PBS add 50 μl of anti-IL23 (p19) was added capture antibody (2.5 μg/ml). The mixture was mixed well and 100 μl of the coating solution was added to each well of the 96 well white plates from Pierce. The wells were covered and incubated overnight at 4° C.
The anti-IL23 (p19)-antibody-coated plates were washed 2× using TBST (use plate washer) and blocked using 200 μl of 0.5% Casein for 1.5-2 hours at room temperature with shaking.
Addition of Supernatant and Detection:
The plates were washed 2× using TBST and the supernatant was transferred (65 μl/well) to the above pre-blocked/IL23(p19)-antibody-coated 96 well plate, and incubated at room temperature for 1.5 hours with shaking.
The plates were washed 4× using TBST (plate washer) and 100 μl/well detection antibody solution prepared from 2 μl of biotin labeled anti-IL-12 (p40/p70) antibody in 11 ml 1% BSA/PBS solution (1-5000 dilution) was added. The plates were incubated for 1 hour with shaking at Room temperature.
Again, the plates were washed 4× with TBST and 100 μl of HRP labeled Streptavidin (R&D Systems) solution (10 μl/10 ml 1% BSA solution) was added, and the plates were incubated at room temperature for another 45 minutes with shaking.
After 45 minutes, the plates were washed with TBST 4× and 100 μl/well Super Signal ELISA Pico Chemiluminescent Substrate from Pierce (3.5 ml A+3.5 ml B+3.5 ml MQ water) was added. The plates were shaken for 1-2 minutes then read on a plate reader.

A further assay relates to IL-23p19. Nature of the assay: LPS Induced IL23p19 in THP-1 Cells (with IFNγ Primed) Assay. In kind it is cell-based, human. As to conditions: Homo sapiens, THP-1, THP-1 cells, IFNγ (50 ng/mL) primed, 1 hour compound pre-incubation, LPS 1 ug/mL 18 hours, 10 pt; read-out: IL23-p19 ELISA, THP1-IFNy, LPS, 10 pt EC50. Here is the method: LPS Induced IL23p19 in THP-1 Cells (with IFNγ Primed) Assay
Method THP-1 Cells Stimulation:
On day 1, 50K/well THP-1 cells were seeded and primed with IFNγ (50 ng/mL) in 384-well plates for about 18 hours in RPMI media with 10% FBS. […] 50 μL/well 2× compound was added to 50 μL/well THP-1 cells (with IFNγ primed) in duplicate in 384 well tissue culture plates. […] Day 3, after stimulation for 18 hours at 37° C., 5% CO2, the assay plate was centrifuged and 70 μL/well supernatant was harvested. IL-23p19 protein in 70 μL/well of supernatant was measured by sandwich ELISA, and 25 μl/well Cell Titer Glo reagent was added to the remaining cells to measure compound toxicity.
Human IL-23p19 Sandwich ELISA:
Maxisorp immuno ELISA plates were pre-coated with 25 μL/well of anti-IL-23p19 capture antibody (2.5 ug/mL) in PBS overnight at room temperature. After washing with 1×PBST, the plates were blocked using 100 μL/well of 1% BSA in PBS for 2 hours at room temperature. The plates were washed three times with 1×PBST and 70 μL/well supernatant were added. The plates were incubated at room temperature for 2 hours with shaking and washed three times with 1×PBST. 25 μL/well of biotin labeled anti-IL-12(p40/p70) detection antibody (100 ng/mL) in PBS with 1% BSA was added and the plates were incubated at room temperature for 2 hours with shaking. After washing three times with 1×PBST, 25 μL/well of streptavidin-HRP (1:200) in PBS with 1% BSA was added and the plates were incubated at room temperature for 20 minutes with shaking. The plates were washed three times with 1×PBST and 25 μL/well of Super Signal ELISA Pico Chemiluminescent Substrate were added. The plates were read with a luminometer, and the chemiluminescence values were entered into Athena (Rigel) for curve fitting, EC50 calculation, and database storage.
In general terms: ELISA stands for enzyme-linked immunosorbent assay.

The pEC50 is the negative decadic logarithm of the EC50, by convention in mol/L. Consider `Cn1cc(-c2cccc(C(=O)Nc3cn(C4COC4)nc3-c3ccccn3)n2)cn1` [Compound I-134, 6-(1-methyl-1H-pyrazol-4-yl)-N-(1-(oxetan-3-yl)-3-(pyridin-2-yl)-1H-pyrazol-4-yl)picolinamide], for which the pEC50 was 5.66 with IL-23 (p19/p40) and 5.90 with IL-23p19.

With `O=C(Nc1cn(CCN2CCOCC2)nc1-c1ccccn1)c1cccc(-c2cn[nH]c2)n1` [Compound I-83, N-(1-(2-morpholinoethyl)-3-(pyridin-2-yl)-1H-pyrazol-4-yl)-6-(1H-pyrazol-4-yl)picolinamide], the pEC50 was 4.08 in the assay on IL-23 (p19/p40) and 5.70 in the assay on IL-23p19. Regarding `COCCOCCn1cc(NC(=O)c2cccc(-c3ccnc(C)c3)n2)c(-c2ccccn2)n1` [Compound I-146, N-(1-(2-(2-methoxyethoxy)ethyl)-3-(pyridin-2-yl)-1H-pyrazol-4-yl)-2′-methyl-[2,4′-bipyridine]-6-carboxamide formate], the pEC50 was 5.23 with IL-23 (p19/p40) and 5.37 with IL-23p19. `COCCOCCn1cc(NC(=O)c2cccc(-c3cc[nH]n3)n2)c(-c2ccccn2)n1` [Compound I-150, N-(1-(2-(2-methoxyethoxy)ethyl)-3-(pyridin-2-yl)-1H-pyrazol-4-yl)-6-(1H-pyrazol-3-yl)picolinamide formate]: the pEC50 in the assay with IL-23 (p19/p40) is 7.18; in the assay on IL-23p19, 5.47. The like results for `COCCOCCn1cc(NC(=O)c2cccc(-c3cn[nH]c3)n2)c(-c2ccccn2)n1` [Compound I-153, N-(1-(2-(2-methoxyethoxy)ethyl)-3-(pyridin-2-yl)-1H-pyrazol-4-yl)-6-(1H-pyrazol-4-yl)picolinamide formate] were, in that order, 6.20 and 6.33. The like results for `Cn1cc(NC(=O)c2cccc(-c3cncc(NC4CC4)c3)n2)c(-c2ccccn2)n1` [Compound I-27, 5′-(cyclopropylamino)-N-(1-methyl-3-(pyridin-2-yl)-1H-pyrazol-4-yl)-[2,3′-bipyridine]-6-carboxamide] were, in that order, 6.47 and 5.15. The matching figures for `CC(=O)Nc1ccc(-c2cccc(C(=O)Nc3cn(C)nc3-c3cnccn3)n2)cn1` [Compound I-102, 6′-acetamido-N-(1-methyl-3-(pyrazin-2-yl)-1H-pyrazol-4-yl)-[2,3′-bipyridine]-6-carboxamide]: 5.69 and 4.57. As for `COc1ccc(-c2nn(C)cc2NC(=O)c2cccc(-c3cncc(C)c3)n2)nc1` [Compound I-69, N-(3-(5-methoxypyridin-2-yl)-1-methyl-1H-pyrazol-4-yl)-5′-methyl-[2,3′-bipyridine]-6-carboxamide], the pEC50 is 5.82 with IL-23 (p19/p40) and 5.92 in the assay on IL-23p19. As for `Cn1cc(NC(=O)c2cccc(-c3cccnc3)n2)c(-c2ccccn2)n1` [Compound I-2, N-(1-methyl-3-(pyridin-2-yl)-1H-pyrazol-4-yl)-[2,3′-bipyridine]-6-carboxamide], the pEC50 in the assay on IL-23 (p19/p40) was 5.57; with IL-23p19, 5.90. Regarding `Cn1cc(NC(=O)c2cccc(-c3cncc(NCC(F)(F)F)c3)n2)c(-c2ccccn2)n1` [Compound I-33, N-(1-methyl-3-(pyridin-2-yl)-1H-pyrazol-4-yl)-5′-((2,2,2-trifluoroethyl)amino)-[2,3′-bipyridine]-6-carboxamide], the pEC50 is 5.99 in the assay on IL-23 (p19/p40) and 5.50 with IL-23p19. The matching figures for `COC1CC(n2cc(NC(=O)c3cccc(-c4cn[nH]c4)n3)c(-c3ccccn3)n2)C1` (centres unmarked) [Compound I-163, N-(1-(3-methoxycyclobutyl)-3-(pyridin-2-yl)-1H-pyrazol-4-yl)-6-(1H-pyrazol-4-yl)picolinamide formate]: 5.97 and 6.43. With `COCCOCCn1cc(NC(=O)c2cccc(-c3ccnc(OC)c3)n2)c(-c2ccccn2)n1` [Compound I-141, 2′-methoxy-N-(1-(2-(2-methoxyethoxy)ethyl)-3-(pyridin-2-yl)-1H-pyrazol-4-yl)-[2,4′-bipyridine]-6-carboxamide formate], the values for the negative logarithm of the EC50 (pEC50) in the assay with IL-23 (p19/p40) and with IL-23p19 were 5.55 and 5.07, respectively.

In the case of `Cn1cc(NC(=O)c2cccc(-c3cncc(NC4CCOCC4)c3)n2)c(-c2ccccn2)n1` [Compound I-30, N-(1-methyl-3-(pyridin-2-yl)-1H-pyrazol-4-yl)-5′-((tetrahydro-2H-pyran-4-yl)amino)-[2,3′-bipyridine]-6-carboxamide], the values for the negative-log EC50 (pEC50) with IL-23 (p19/p40) and in the assay on IL-23p19 were 5.49 and 6.11, respectively. As to `Cc1cncc(-c2cccc(C(=O)Nc3cn(C)nc3N3CCOCC3)n2)c1` [Compound I-77, 5′-methyl-N-(1-methyl-3-morpholino-1H-pyrazol-4-yl)-[2,3′-bipyridine]-6-carboxamide], the pEC50 in the assay on IL-23 (p19/p40) is 5.66; in the assay with IL-23p19, 4.48.

`Cn1cc(NC(=O)c2ccnc(-c3cn[nH]c3)n2)c(-c2ccccn2)n1` [Compound I-137, N-(1-methyl-3-(pyridin-2-yl)-1H-pyrazol-4-yl)-2-(1H-pyrazol-4-yl)pyrimidine-4-carboxamide]: the negative-log EC50 (pEC50) is 5.30 with IL-23 (p19/p40) and 5.40 in the assay on IL-23p19. In turn, `COCCNc1cncc(-c2cccc(C(=O)Nc3cn(C)nc3-c3ccccn3)n2)c1` [Compound I-31, 5′-((2-methoxyethyl)amino)-N-(1-methyl-3-(pyridin-2-yl)-1H-pyrazol-4-yl)-[2,3′-bipyridine]-6-carboxamide] gave a pEC50 with IL-23 (p19/p40) of 6.38. Consider `Cn1cc(NC(=O)c2cccc(-c3cc[nH]n3)n2)c(-c2ccc(N3CCOCC3)cn2)n1` [Compound I-172, N-(1-methyl-3-(5-morpholinopyridin-2-yl)-1H-pyrazol-4-yl)-6-(1H-pyrazol-3-yl)picolinamide], for which, in the assay on IL-23 (p19/p40), the pEC50 was 7.33. `Cn1cc(NC(=O)c2cccc(-c3cn[nH]c3)n2)c(-c2ccc(N3CCOCC3)cn2)n1` [Compound I-171, N-(1-methyl-3-(5-morpholinopyridin-2-yl)-1H-pyrazol-4-yl)-6-(1H-pyrazol-4-yl)picolinamide]: the pEC50 in the assay with IL-23 (p19/p40) is 5.62. On the same count and under the same terms, the same measure for `O=C(Nc1cn(C2CCOCC2)nc1-c1ccccn1)c1cccc(-c2ccncc2)n1` [Compound I-167, N-(3-(pyridin-2-yl)-1-(tetrahydro-2H-pyran-4-yl)-1H-pyrazol-4-yl)-[2,4′-bipyridine]-6-carboxamide]: 5.19; for `COCCOCCn1cc(NC(=O)c2cccc(Nc3cc(C)ncc3C)n2)c(-c2ccccn2)n1` [Compound I-157, 6-((2,5-dimethylpyridin-4-yl)amino)-N-(1-(2-(2-methoxyethoxy)ethyl)-3-(pyridin-2-yl)-1H-pyrazol-4-yl)picolinamide formate]: 4.96.

The values above are taken from US10947216B2, “Amide compounds and method for making and using” (Rigel Pharmaceuticals, Inc., priority 2016, dated 2021).
